Data reported in patent US11207331B2, “Agents, compositions and methods for enhancing neurological function” (University of Southern California, priority 2007, dated 2021).

How the values were obtained:
hippocampal neural cells = experiment: Mitotic appearance (doublet cell body) of cultured hippocampal neural cells; format: cell-based, rat
Experimental: Hippocampal neural cells were obtained from an embryonic day 18 rat hippocampus. The samples contained approximately 12,000 neurons/sample. The sample was 95% neuronal. No selection for neuronal subtypes was conducted. Hippocampal neurons were treated with 3α-hydroxy-5α-pregnan-20-one (THP). 3α-hydroxy-5α-pregnan-20-one (THP) was added to two samples containing hippocampal neural cells at a concentration of either 10 nanomolar (nM) and 100 nanomolar (nM). The cells were incubated for 24 hrs at 37° C. Neurons were grown in a defined medium, Neurobasal+B27 supplement in the absence (control) or presence of THP or other test molecule (experimental). The samples with added THP were compared with a control sample containing only hippocampal neural cells. Changes in the mitotic appearance of the neural cells were observed. A mitotic appearance of a particular neural cell is defined as a doublet form in the cell body of the neural cell. The doublet form is indicative of a neural cell undergoing mitosis.
The experiment described above was repeated only THP was added to three samples containing hippocampal neural cells at a concentration of 100 nanomolar (nM), 250 nM and 500 nM. The samples with added THP were compared with a control sample containing only hippocampal neural cells. […] Data are expressed as percent of mean+SEM,**p<0.01, ***p<. 001.

hippocampal neurons = experiment: Total number of hippocampal neurons; format: cell-based, rat; conditions: primary hippocampal neurons
From the text: (§1) Having determined that THP increases the expression of the cell proliferating markers, a determination was sought as to whether the increase in cell proliferation markers translated into an increase in neuronal number. […] As shown in FIGS. 6A-6C, THP increases neuron number as assessed in MuLV-GFP infected mouse neurons. The effect of THP on HT-22 cells proliferation was detected on MuLV infected cells.

[1] = system: mouse hippocampal neuron cell line (HT-22); experiment: FACS of MuLV-GFP infected HT-22 cells; format: cell-based; conditions: THP 250 nM
Experimental: as §1
FIG. 6C summarizes the FACS results. V=vehicle; THP (250 nM).

[2] = system: neural stem cells derived from human fetal cortex; experiment: BrdU chemiluminescence ELISA in human neural stem cells; format: cell-based; conditions: 250 and 500 nM, 24 hours
Experimental: Another experiment was performed to assess the neurogenic effects of THP administration on human neural stem cells. In this experiment, neural stem cells derived from human fetal cortex were treated with varying concentrations of THP [1-1000 nM] or with bFGF [20 ng/ml]+heparin [[…]] as a THP positive control. The proliferation marker, BrdU [10 uM] was added simultaneously with test molecules and the cells were incubated at 37° C. for 24 hours.

[3] = THP concentration in plasma and cortex by GC/MS; format: in vivo, mouse
Experimental: Cortices from brain hemisection of mice treated with THP or vehicle were collected at time of sacrifice for measurement of THP by GC/MS. Plasma was also collected at time of sacrifice. Three-month-old male non-Tg and 3×TgAD mice were subcutaneously injected with THP (1, 10, and 20 mg/kg BW) or vehicle (0.1% ethanol in PBS, n=4 in each group). The mice were sacrificed 24 hours later. THP concentration in plasma and brain were measured by GC/MS. […] In the 3×TgAD mouse cortex, a 10 mg/kg dose of THP results in a cortical level of 20 ng/g protein 24 hrs post injection.

PCNA and CDK1/cdc2 = PCNA and CDK1/cdc2 mRNA and protein in hippocampus (RT-PCR, Western blot); format: in vivo, mouse
Experimental: Protein was extracted from mouse hippocampus and separated by SDS gel as described in the literature. After transfer, PVDF membrane was plotted with monoclonal antibody for proliferating cell nuclear antigen (PCNA, 1:500, Zymed Laboratories Inc, San Francisco, Calif.) and then incubated with a horseradish peroxidase conjugated secondary antibody which is complementary to the primary antibody. Results were visualized by the ECL Plus Western Blotting Detection System (GE Healthcare, Amersham, Buckinghamshire, UK) followed by TMB development. Optical density was and analyzed by BioRad Quantity One software. The percent protein expression vs. control was normalized by loading control β-actin.
Brain samples derived from the same brains that underwent unbiased stereological analysis and GC/MC for THP detection were also analyzed by real-time RT-PCR and Western blot for expression of PCNA and CDK1 mRNA and protein.
To confirm the stereological analyses results, Western blot analyses of cell proliferation marker PCNA were carried out using samples derived from the same brains which underwent unbiased stereological analysis. PCNA, or Proliferating Cell Nuclear Antigen, is a protein that acts as a processivity factor for DNA polymerase delta subunit in eukaryotic cells and was induced in vitro by THP in cultured rat hippocampal progenitor cells.
Western blot analysis was performed to determine proliferating cell nuclear antigen (PCNA) expression levels in the hippocampus from the same animals that underwent behavior experiments.

[4] = system: reactive microglial cells; experiment: Microglial reaction (OX42 Western blot, Iba1 staining); format: in vivo, mouse
Experimental: Further studies were conducted using a dosing regime of once a week for six months administered subcutaneously. Three and six months old 3×Tg-AD and age-matched non-Tg mice were chosen for the experiments, since AD pathology (Aβ) starts development at 3-month and abundant accumulation at 6-months. Allopregnanolone was subcutaneously (s.c.) administrated with 10 mg/kg once per week for 6 months. For neurogenesis and neurosurvival study, BrdU, IdU and CIdU were intraperitoneal (i.p.) injected at the first 5 days, mid 5 days and 5 days before sacrifice during 6-month treatment. After 6 months of allopregnanolone treatment, mice, at 9- and 12-month old, were sacrificed.
Western blot analysis was conducted with rabbit polyclonal anti-CD11b/c (OX42) which recognizes reactive microglial cells.

[5] = system: hippocampus of 3×TgAD mice; experiment: Long-term treatment with BrdU, IdU and CldU labelling; format: in vivo, mouse; conditions: 10 mg/kg once a week for 6 months, begun at 3 or 6 months of age
Experimental: In yet another study, THP (10 mg/kg once a week for 6 months) was administered to mice beginning at 3 months or 6 months of age. The cell proliferation marker, 5-bromodeoxyuridine (BrdU) was injected (100 mg/kg) one hour after initial THP treatment and once per day for the next four days to detect cell proliferation and cell survival over the six month treatment period. After 3 months treatment, the mice were injected 5 times with another nucleotide analog iododeoxyuridine (one per day). After 6 months treatment, the mice were injected with chlorodeoxyuridine (CldU) 5 times (once per day). Using specific antibodies, BrdU, IdU, and CldU incorporated cells will identify the 6 month survival, 3 month survival, and newly formed cells respectively. The mice were then sampled for biochemical, IHC, and flow cytometry assay. The results from mice with THP treatment initiated at 3 months old are shown in FIGS. 20B and 20C and initiated at 6 months old are shown in FIGS. 20D and 20E. The aim was to determine whether or not desensitization to THP was occurring.

Compound: CC(=O)[C@H]1CC[C@H]2[C@@H]3CC[C@H]4C[C@H](O)CC[C@]4(C)[C@H]3CC[C@]12C [THP, 3α-hydroxy-5α-pregnan-20-one]
- fold increase in the mitotic phenotype of the neural cells vs control (hippocampal neural cells; 10 nM or 100 nM THP, 24 hrs): ~2 fold
- concentration with greatest induction of the mitotic phenotype (hippocampal neural cells; 100, 250, 500 nM tested): 500 nm
- fold increase in the mitotic phenotype of the neural cells vs control (hippocampal neural cells; 100, 250 and 500 nM THP): 2-3 fold
- increase in neuron number (hippocampal neurons): approximately 30%
- increase in dividing cell number [1]: 22%
- BrdU chemiluminescence compared with positive control bFGF+heparin [2]: consistently greater than the positive control bFGF+heparin
- BrdU chemiluminescence relative to vehicle control [2]: significantly increased
- dose dependence of THP in plasma and cortex ([3]; 1, 10 and 20 mg/kg BW s.c., 24 hours): linear dose dependent manner
- cortical level of THP ([3]; 3×TgAD mouse cortex, 10 mg/kg s.c., 24 hrs post injection): 20 ng/g protein
- THP level in 3×TgAD relative to nontransgenic treated mice ([3]; plasma and cortex, 24 hours): consistently lower level of THP in both plasma and cortex
- PCNA and CDK1 protein expression in hippocampi (PCNA and CDK1/cdc2; 10 mg/kg, Western blot, 3 months): greater PCNA and CDK1 protein expression in the hippocampi of 3×TgAD relative to the non-Tg mice
- PCNA expression vs vehicle 21 day after injection (PCNA and CDK1/cdc2; 3×TgAD mice, 6, 9 or 12-month-old): no significant difference
- PCNA mRNA in hippocampus (PCNA and CDK1/cdc2; 3×TgAD mice, real-time RT-PCR, 1-20 mg/kg): dose-dependent increase in PCNA mRNA
- PCNA immunoblot vs vehicle control (PCNA and CDK1/cdc2; 3×TgAD mice, three and six month, 24 hours after 10 mg/kg): increased
- PCNA expression vs vehicle (PCNA and CDK1/cdc2; non-Tg and 3×TgAD mice, 6- and 9-months, 24 hr): did not significantly affect PCNA expression
- anti-CD11b/c (OX42) band intensities ([4]; 9-month and 12-month 3×Tg): no significant differences
- anti-Iba1 immunofluorescent staining ([4]; hippocampal CA1): lower levels of immunoactivity in THP-treated hippocampal CA1
- responsiveness of the brain (desensitization) [5]: still responsive to THP at 3 and 6 months
